Results as given in PubChem BioAssay AID1963869 (Molecular Pharmacology Branch, DTP, NCI, 2024).

Test system: KRAS patient-derived spheroids with HUVEC/MSC, viability
Experiment: Anticancer human tumor 323965-272-R-J2-PDC patient-derived pancreatic carcinoma cell line growth inhibition [KRAS2]
Conditions: for viability, T/C: stronger effect = lower value; active = viability on the fitted dose curve at most 10% of control; inactive = the rest
How it was run: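 KRAS-mutant tumor cells were grown as spheroids with HUVEC endothelial cells and human MSCs as stroma. Targeted agents were tested alone and with KRAS pathway inhibitors. Doses started at or near clinical Cmax, or 10 microM, descending half-log.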

[1] = curve of first compound, second compound 0.1 µM
[2] = curve of first compound, second compound 0.316 µM
[3] = curve of first compound, second compound 1 µM
[4] = curve of first compound, second compound 3.16 µM
[5] = second compound 0.1 µM, first compound 0.0316 µM
[6] = second compound 0.316 µM, first compound 0.0316 µM
[7] = second compound 1 µM, first compound 0.0316 µM
[8] = second compound 3.16 µM, first compound 0.0316 µM
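Also: spheroids exposed to agents for 7 days.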
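For viability, T/C in this document: 100% = DMSO vehicle control viability.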

CC(=O)Nc1cccc(-n2c(=O)n(C3CC3)c(=O)c3c(Nc4ccc(I)cc4F)n(C)c(=O)c(C)c32)c1 + CC1OCC2(CCN(c3cnc(Sc4ccnc(N)c4Cl)c(N)n3)CC2)C1N
inactive: viability, T/C (second compound 0.1 µM, first compound 0.0001 µM) 80.7% | viability, T/C (second compound 0.1 µM, first compound 0.000316 µM) 72.3% | viability, T/C (second compound 0.1 µM, first compound 0.001 µM) 56.4% | viability, T/C (second compound 0.1 µM, first compound 0.00316 µM) 41.8% | viability, T/C (second compound 0.1 µM, first compound 0.01 µM) 35% | viability, T/C [5] 25.8% | viability, T/C (second compound 0.316 µM, first compound 0.0001 µM) 63.1% | viability, T/C (second compound 0.316 µM, first compound 0.000316 µM) 53.3% | viability, T/C (second compound 0.316 µM, first compound 0.001 µM) 41.7% | viability, T/C (second compound 0.316 µM, first compound 0.00316 µM) 34.9% | viability, T/C (second compound 0.316 µM, first compound 0.01 µM) 27.1% | viability, T/C [6] 20.4% | viability, T/C (second compound 1 µM, first compound 0.0001 µM) 47.3% | viability, T/C (second compound 1 µM, first compound 0.000316 µM) 40% | viability, T/C (second compound 1 µM, first compound 0.001 µM) 33.6% | viability, T/C (second compound 1 µM, first compound 0.00316 µM) 25.6% | viability, T/C (second compound 1 µM, first compound 0.01 µM) 20.4% | viability, T/C [7] 17.1% | viability, T/C (second compound 3.16 µM, first compound 0.0001 µM) 29% | viability, T/C (second compound 3.16 µM, first compound 0.000316 µM) 27.8% | viability, T/C (second compound 3.16 µM, first compound 0.001 µM) 21.7% | viability, T/C (second compound 3.16 µM, first compound 0.00316 µM) 17.4% | viability, T/C (second compound 3.16 µM, first compound 0.01 µM) 18.8% | viability, T/C [8] 17.8% | viability, T/C (second compound 10 µM, first compound 0.0001 µM) 29% | viability, T/C (second compound 10 µM, first compound 0.000316 µM) 26.3% | viability, T/C (second compound 10 µM, first compound 0.001 µM) 19.7% | viability, T/C (second compound 10 µM, first compound 0.00316 µM) 17.7% | viability, T/C (second compound 10 µM, first compound 0.01 µM) 14.8% | viability, T/C (second compound 10 µM, first compound 0.0316 µM) 15.9%
1.78 nM: IC50 [1]
< 0.1 nM: IC50 [3] | IC50 [4] | IC50 (curve of first compound, second compound 10 µM)
0.438 nM: IC50 [2]

COC(=O)c1ccc2c(C(=Nc3ccc(N(C)C(=O)CN4CCN(C)CC4)cc3)c3ccccc3)c(O)[nH]c2c1 + C=CC(=O)N1CCN(c2nc(OCC3CCCN3C)nc3c2CCN(c2cccc4cccc(C)c24)C3)CC1CC#N
388 nM: IC50 [2]
active: viability, T/C (second compound 3.16 µM, first compound 10 µM) 5.57%
< 31.6 nM: IC50 [4]
993 nM: IC50 [1]
1640 nM: IC50 (curve of first compound, second compound 0.0316 µM)
873 nM: IC50 [3]
inactive: viability, T/C (second compound 0.0316 µM, first compound 0.0316 µM) 76.7% | viability, T/C (second compound 0.0316 µM, first compound 0.1 µM) 73.2% | viability, T/C (second compound 0.0316 µM, first compound 0.316 µM) 69.8% | viability, T/C (second compound 0.0316 µM, first compound 1 µM) 61.8% | viability, T/C (second compound 0.0316 µM, first compound 3.16 µM) 35.4% | viability, T/C (second compound 0.0316 µM, first compound 10 µM) 19.6% | viability, T/C [5] 66.7% | viability, T/C (second compound 0.1 µM, first compound 0.1 µM) 68.8% | viability, T/C (second compound 0.1 µM, first compound 0.316 µM) 65.8% | viability, T/C (second compound 0.1 µM, first compound 1 µM) 49.3% | viability, T/C (second compound 0.1 µM, first compound 3.16 µM) 28.1% | viability, T/C (second compound 0.1 µM, first compound 10 µM) 19.7% | viability, T/C [6] 63.8% | viability, T/C (second compound 0.316 µM, first compound 0.1 µM) 67.3% | viability, T/C (second compound 0.316 µM, first compound 0.316 µM) 49.6% | viability, T/C (second compound 0.316 µM, first compound 1 µM) 38.3% | viability, T/C (second compound 0.316 µM, first compound 3.16 µM) 20.6% | viability, T/C (second compound 0.316 µM, first compound 10 µM) 18.2% | viability, T/C [7] 64.9% | viability, T/C (second compound 1 µM, first compound 0.1 µM) 62.8% | viability, T/C (second compound 1 µM, first compound 0.316 µM) 58.4% | viability, T/C (second compound 1 µM, first compound 1 µM) 49.5% | viability, T/C (second compound 1 µM, first compound 3.16 µM) 23.4% | viability, T/C (second compound 1 µM, first compound 10 µM) 16.8% | viability, T/C [8] 26.2% | viability, T/C (second compound 3.16 µM, first compound 0.1 µM) 25.4% | viability, T/C (second compound 3.16 µM, first compound 0.316 µM) 30% | viability, T/C (second compound 3.16 µM, first compound 1 µM) 15.6% | viability, T/C (second compound 3.16 µM, first compound 3.16 µM) 9.71%

CN(C)C/C=C/C(=O)Nc1cc2c(Nc3ccc(F)c(Cl)c3)ncnc2cc1O[C@H]1CCOC1
> 100 nM: IC50 (curve of compound)
inactive: viability, T/C (compound 0.000316 µM) 99% [middle of 5 runs] | viability, T/C (compound 0.001 µM) 97.1% [middle of 5 runs] | viability, T/C (compound 0.00316 µM) 89.2% [middle of 5 runs] | viability, T/C (compound 0.01 µM) 81% [middle of 5 runs] | viability, T/C (compound 0.0316 µM) 74.5% [middle of 5 runs] | viability, T/C (compound 0.1 µM) 73.5% [middle of 5 runs]
